{"source": "ChEMBL document CHEMBL1157539", "about": "“Thousands of chemical starting points for antimalarial lead identification” (Nature, 2010)", "data": [{"test_system": "Plasmodium falciparum", "assay": "GSK_TCMDC: Inhibition of Plasmodium falciparum 3D7 in whole erythrocytes, using parasite LDH activity as an index of growth.", "format": "functional, organism-based", "conditions": "Plasmodium falciparum, 3D7", "units": {"XC50": "nM"}, "values": [{"smiles": "CCN(CC)CCN(Cc1ccc(-c2ccc(C(F)(F)F)cc2)cc1)C(=O)Cn1c(CCc2cccc(F)c2F)nc(=O)c2ccccc21", "XC50": 671}, {"smiles": "Cc1[nH]c(C)c(C(F)(F)F)c(=O)c1-c1ccc(Oc2ccc(OC(F)(F)F)cc2)cc1", "XC50": 173}, {"smiles": "CC1(C)NC(N)=NC(=N)N1OCCCCCOc1ccccc1", "XC50": 3.2}, {"smiles": "COc1cccc(CC(=O)N2CCC(n3c(C)nc4ccc(F)cc43)CC2)c1", "XC50": 906}, {"smiles": "COc1ccc(C(=O)N2CCc3cc4nccc(N5CCN6CCC[C@H]6C5)c4cc32)cc1", "XC50": 948}, {"smiles": "COc1cc(CCOc2c(C)nc(N)nc2N)cc(OC)c1OC", "XC50": 23.8}, {"smiles": "Cc1cccc(Oc2cccc3[nH]nc(N)c23)c1", "XC50": 1040}, {"smiles": "NC1CCN(CCNCc2cccc(-c3ccc(-c4nc5cc(C(F)(F)F)ccc5[nH]4)cc3)c2)C1", "note": "(centres undefined)", "XC50": 893}, {"smiles": "Cc1ccc(O)cc1Nc1ccnc2cc(-c3nccs3)ccc12", "XC50": 879}, {"smiles": "CCc1ccc(CC(C)NCC(O)c2ccccc2)cc1", "note": "(centres undefined)", "XC50": 887}, {"smiles": "N#Cc1ccc(N2CCN(Cc3cccc(-c4ccc(-c5nc6cc(C(F)(F)F)ccc6[nH]5)s4)c3)CC2)nc1", "XC50": 1040}, {"smiles": "COc1ccc(S(=O)(=O)N2CCCC(C)C2)cc1N1CCN(C(=O)c2ccc([N+](=O)[O-])o2)CC1", "note": "(centres undefined)", "XC50": 1250}, {"smiles": "COc1ccc2[nH]c(C)cc(=NN=Cc3ccccc3Cl)c2c1", "XC50": 601}, {"smiles": "COc1ccc2nccc([C@@H](O)CN3CCC(NCc4cc5ccccc5cn4)CC3)c2n1", "XC50": 918}, {"smiles": "O=C(Nc1cccc(C(F)(F)F)c1)c1ccc(S(=O)(=O)NC2CCN(CC3CCCCC3)C2)cc1", "note": "(centres undefined)", "XC50": 789}, {"smiles": "Cc1ccc(NC(=O)c2ccc(C(=O)NC3CCN(CC4CCCCC4)CC3)cc2)cc1", "XC50": 903}, {"smiles": "COc1ccc(NC(=O)N2CCN(CCCCCNC(=O)/C=C/c3ccc(C(F)(F)F)cc3)CC2)cc1Cl", "XC50": 859}, {"smiles": "c1ccc(CN2CCC(NCc3ccc(-c4ccc(CNC5CCCC5)cc4)cc3)CC2)cc1", "XC50": 294}, {"smiles": "N#Cc1ccc(N[C@@H](CC2CCCCC2)C(=O)NCc2cc(Cl)cc(Cl)c2)c2ccccc12", "XC50": 1100}, {"smiles": "CC(C)CCN1CCC(Oc2ccc(NC(=O)c3ccccc3)cc2Cl)CC1", "XC50": 1300}, {"smiles": "Cc1cccc(-c2cc3cc(Nc4ccnc5cc(-c6nccs6)ccc45)ccc3[nH]2)c1", "XC50": 174}, {"smiles": "CCCCCCCCCN(CCC)C(=O)[C@@H]1OC(C(=O)OC(c2ccccc2)c2ccccc2)=C[C@H](NC(=O)OC(C)(C)C)[C@H]1NC(C)=O", "XC50": 640}, {"smiles": "CCc1ccc(OCc2ccccc2C(=O)Nc2ccc3nc(C)cc(N)c3c2)cc1", "XC50": 203}, {"smiles": "Cc1cc(Nc2nc(NCc3cccnc3)nc3ccccc23)n[nH]1", "XC50": 852}, {"smiles": "Cn1c(Nc2nnc(C3CC3)s2)nc2cc(Nc3ccnc(Nc4cccc(CS(C)(=O)=O)c4)n3)ccc21", "XC50": 681}, {"smiles": "CCOC(=O)c1nc(-c2cc(Cl)nc(Cl)c2)[nH]c1NC(=S)NCCCN1CCOCC1", "XC50": 925}, {"smiles": "O=C(Nc1ccc(Cl)cc1)c1ccc(CN2CCCN(Cc3cccc(F)c3)CC2)cc1", "XC50": 1030}, {"smiles": "CC(C)(C)c1ccc(NC(=O)c2cccc(CN3CCCN(CC4CCCCC4)CC3)c2)cc1", "XC50": 737}, {"smiles": "COc1ccc(C=Cc2cc(=N)c3ccccc3[nH]2)cc1Br", "XC50": 713}, {"smiles": "CC1CCCCN1CCCNc1nc(NCc2ccccc2)c2ccccc2n1", "note": "(centres undefined)", "XC50": 953}, {"smiles": "O=C(NCc1ccc(Cl)c(Cl)c1)c1ccc(-c2nc3ccc(Cl)cc3[nH]2)cc1", "XC50": 905}, {"smiles": "COc1ccc(-c2ccc(NC(=O)c3cccc(Cl)c3)cc2)cc1CNC(C)C", "XC50": 466}, {"smiles": "O=C(NCCCN1CCOCC1)c1ccc(-c2cccc(NC(=O)c3ccc(Cl)c(Cl)c3)c2)cc1", "XC50": 683}, {"smiles": "CC(C)(C)c1ccc(CN2CCCCC(NC(=O)c3cc(-c4cccc(Cl)c4)cs3)C2)cc1", "note": "(centres undefined)", "XC50": 999}, {"smiles": "Cc1nc(-c2ccc(C#N)cc2)sc1C(=O)NCCCCN1CCC(c2ccc3c(c2OCCO)CCCC3)CC1", "XC50": 850}, {"smiles": "Nc1ccc(-c2nc3c(ccc4ccccc43)[nH]2)cc1", "XC50": 941}, {"smiles": "N#Cc1ccc2c(c1)CCN(CCC1CCC(NC(=O)/C=C/c3cccc4ccccc34)CC1)CC2", "note": "(centres undefined)", "XC50": 729}, {"smiles": "Cn1nc(-c2cccc(CNCCc3cccs3)c2)c2cnc(NC3CCCC3)nc21", "XC50": 1890}, {"smiles": "CCCC1N=C(N)N=C(N)N1c1ccc(OC)cc1", "note": "(centres undefined)", "XC50": 234}, {"smiles": "O=C(Nc1ccc(-c2ccccc2)cc1)Nc1cccc(Cn2nc(Cl)c(N3CCNCC3)cc2=O)c1", "XC50": 369}, {"smiles": "CCn1cc(C=C2Oc3c(ccc(O)c3CN3CCCCC3)C2=O)c2cc(OC)ccc21", "XC50": 521}, {"smiles": "CCCCCOc1ccc(C(O)C(CN2CCCCC2)c2ccccc2)cc1", "note": "(centres undefined)", "XC50": 877}, {"smiles": "CCC1(C)CC(CCNCc2ccccc2O)(c2ccc(C)cc2)CCO1", "note": "(centres undefined)", "XC50": 38.8}, {"smiles": "COC(=O)C1=CNC=C(C(=O)OC)C1c1ccc(Cl)c([N+](=O)[O-])c1", "XC50": 676}, {"smiles": "CCOC(=O)c1ccc(N(CCCN(CCCN(c2ccc(C(=O)OCC)cc2)S(=O)(=O)c2ccc(C)cc2)CCc2ccc(O)cc2)S(=O)(=O)c2ccc(C)cc2)cc1", "XC50": 1050}, {"smiles": "Nc1c(Cl)cc(C(O)CNCCCCCCOCCC=C2CCOCC2)cc1Cl", "note": "(centres undefined)", "XC50": 634}, {"smiles": "CS(=O)(=O)c1cccc(-c2ccc3oc(C(N)=O)c(NC(=O)c4cccs4)c3c2)c1", "XC50": 589}, {"smiles": "CCNc1cc(C)nc(Nc2ccc(F)cc2)n1", "XC50": 798}, {"smiles": "COc1ccc2nc(Nc3nc4cnccc4[nH]3)sc2c1", "XC50": 1130}, {"smiles": "O=C(NCc1cc2c(cc1Cl)OCO2)c1ccc(CNC2CCN(Cc3ccccc3)CC2)cc1", "XC50": 831}, {"smiles": "Cc1nc(N2CCC(C)CC2)c2c3c(sc2n1)CCCC3", "XC50": 1060}, {"smiles": "COc1cc(O)c2c(=O)c(OC)c(-c3cccc(Cl)c3OCC(=O)O)oc2c1OC", "XC50": 586}, {"smiles": "O=C(/C=C/c1ccccc1)N1CCOC(CCN2CCC(c3ccccc3)CC2)(c2ccc(Cl)c(Cl)c2)C1", "note": "(centres undefined)", "XC50": 516}, {"smiles": "COc1ccc(OC)c(NC(=O)C2c3ccccc3C(=O)N(CC(C)C)C2c2cccs2)c1", "note": "(centres undefined)", "XC50": 805}, {"smiles": "CN(C)c1cccc(NC(=O)N[C@H]2N=C(c3ccccc3)c3ccccc3N(CC(=O)N3CCCC3)C2=O)c1", "XC50": 254}, {"smiles": "CC(=O)c1ccc(N2C(=O)C3C(Cc4ccc(OC(C)(C)C)cc4)NC4(C(=O)N(Cc5ccc(C(C)(C)C)cc5)c5ccccc54)C3C2=O)cc1", "note": "(centres undefined)", "XC50": 1280}, {"smiles": "N#Cc1ccc(NC(=O)Nc2ccc(OC(F)(F)F)cc2)cc1", "XC50": 819}, {"smiles": "Nc1nc(N)c2nc(C3CC=CCC3)c(N)nc2n1", "note": "(centres undefined)", "XC50": 162}, {"smiles": "O=C(NC1CCCCCC1)C1CCCN(C(=O)c2ccc(O)c(-c3ccc(Cl)c(Cl)c3)c2)C1", "note": "(centres undefined)", "XC50": 763}, {"smiles": "CCOc1cc(C)ccc1N(C1CCN(CCCCNC(=O)c2ccc(-c3ccc(C(F)(F)F)cc3)cc2)CC1)S(=O)(=O)c1ccccc1", "XC50": 1020}, {"smiles": "COc1ccc2nc3cc(Cl)ccc3c(Nc3ccc(Sc4ccc(Nc5c6ccc(Cl)cc6nc6ccc(OC)cc56)cc4)cc3)c2c1", "XC50": 199}, {"smiles": "CN1CCC[C@@H](Oc2cc3c(cc2Br)CCN3C(=O)Nc2ccc(-c3ccncc3)c(Cl)c2)C1", "XC50": 624}, {"smiles": "Cn1nc(-c2ccc(NC(=O)Nc3cc(C(F)(F)F)ccc3F)c(F)c2)c2cnc(NCCCN3CCOCC3)nc21", "XC50": 604}, {"smiles": "CC[C@H]1CN2CC[C@H]1C[C@@H]2[C@H](O)c1ccnc2ccc(O)cc12", "XC50": 1040}, {"smiles": "O=C1C(c2ccccc2)=C(Nc2cc(Cl)cc(Cl)c2)c2ccccc21", "XC50": 372}, {"smiles": "COc1ccc2nccc([C@@H](O)CN3CCC(NCc4cc5c(F)ccc(F)c5[nH]4)CC3)c2n1", "XC50": 699}, {"smiles": "CC(C)Oc1cc(-c2ccc(S(C)(=O)=O)cc2)nc(N(Cc2cccc(F)c2F)Cc2cccc(F)c2F)n1", "XC50": 121}, {"smiles": "Clc1cc(Nc2ccnc3ccc(Br)cc23)ccc1Oc1ccc(Cl)c2ccccc12", "XC50": 634}, {"smiles": "O=C(/C=C/c1ccc(Cl)c(Cl)c1)NCCCCCN1CCC(CCNC(=O)/C=C/c2ccccc2F)CC1", "XC50": 871}]}]}
